Results on 43 molecules are retold here after patent US20250197382A1, “KIF18A INHIBITOR” (WIGEN BIOMEDICINE TECHNOLOGY (SHANGHAI) CO., LTD., priority 2022, published 2025).

Some results are limits rather than exact numbers.

This assay deals with Recombinant human KIF18A (1-467His-tagged) protein (Homo sapiens (Human), UniProt Q8NI77). The assay can be described thus: KIF18A enzyme assay (microtubule-stimulated ATPase activity, ADP-Glo). In kind it is biochemical. The settings on record: 30 nM KIF18A, ATP 75 μM, read-out: inhibitory activity against KIF18A IC50. Put shortly:
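Baculovirus-expressed human KIF18A (1-467, His-tagged; 30 nM) preincubated 15 min at room temperature with compound (22-point 2-fold series) in pH 7.5 Tris buffer containing 30 μg/mL pig microtubules and 1 μM paclitaxel.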

Chain of Recombinant human KIF18A (1-467His-tagged) protein (Q8NI77 1-467): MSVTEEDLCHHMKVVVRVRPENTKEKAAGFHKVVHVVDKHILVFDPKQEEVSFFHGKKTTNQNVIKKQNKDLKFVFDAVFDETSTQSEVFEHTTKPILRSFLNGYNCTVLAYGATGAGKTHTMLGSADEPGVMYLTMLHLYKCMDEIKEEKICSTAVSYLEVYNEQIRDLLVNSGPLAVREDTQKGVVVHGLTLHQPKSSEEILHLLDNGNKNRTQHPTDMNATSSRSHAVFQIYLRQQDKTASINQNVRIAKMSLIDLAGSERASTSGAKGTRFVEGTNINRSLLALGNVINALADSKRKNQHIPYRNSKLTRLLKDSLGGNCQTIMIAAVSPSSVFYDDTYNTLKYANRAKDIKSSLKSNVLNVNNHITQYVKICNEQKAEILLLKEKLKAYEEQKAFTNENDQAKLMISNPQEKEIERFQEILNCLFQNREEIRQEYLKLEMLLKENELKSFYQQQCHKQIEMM
Chain of Recombinant human KIF18A (1-467His-tagged) protein (P02550 whole entry partner): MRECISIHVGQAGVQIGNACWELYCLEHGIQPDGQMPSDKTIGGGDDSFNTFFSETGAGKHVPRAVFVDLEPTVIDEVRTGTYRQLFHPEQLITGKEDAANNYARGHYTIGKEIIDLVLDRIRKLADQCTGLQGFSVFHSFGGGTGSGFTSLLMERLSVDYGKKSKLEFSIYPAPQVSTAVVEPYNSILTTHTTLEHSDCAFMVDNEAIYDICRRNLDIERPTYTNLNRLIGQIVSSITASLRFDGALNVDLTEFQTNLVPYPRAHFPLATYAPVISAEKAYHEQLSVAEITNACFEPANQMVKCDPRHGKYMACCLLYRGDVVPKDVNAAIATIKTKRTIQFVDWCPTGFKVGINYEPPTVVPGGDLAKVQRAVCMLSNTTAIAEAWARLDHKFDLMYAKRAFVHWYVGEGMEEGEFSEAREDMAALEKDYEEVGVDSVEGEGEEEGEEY
Chain of Recombinant human KIF18A (1-467His-tagged) protein (P02554 whole entry partner): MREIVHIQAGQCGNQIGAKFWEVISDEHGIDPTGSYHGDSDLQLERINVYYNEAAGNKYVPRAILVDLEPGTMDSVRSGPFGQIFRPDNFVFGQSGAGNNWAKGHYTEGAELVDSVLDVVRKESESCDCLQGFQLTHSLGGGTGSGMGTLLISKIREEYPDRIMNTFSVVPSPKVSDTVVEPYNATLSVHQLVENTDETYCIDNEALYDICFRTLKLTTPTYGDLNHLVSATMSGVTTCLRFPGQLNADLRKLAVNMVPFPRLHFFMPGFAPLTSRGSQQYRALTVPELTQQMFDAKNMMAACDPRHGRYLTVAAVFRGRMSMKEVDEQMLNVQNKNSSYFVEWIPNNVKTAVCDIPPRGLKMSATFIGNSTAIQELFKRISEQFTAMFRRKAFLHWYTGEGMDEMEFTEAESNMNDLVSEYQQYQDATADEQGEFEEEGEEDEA

For the molecule `O=C(Nc1ccc(NS(=O)(=O)CCO)cc1N1CCC2(CC1)CC2)c1cc(N2CCOCC2)c2occc2c1` [Compound 172], the IC50 (as a rule, the concentration that gives 50% inhibition) was not above 100 nM.
In the case of `O=C(Nc1ccc(NS(=O)(=O)CCO)cc1N1CCC2(CC1)CC2)c1cc2c(c(N3CCC4(CC4)C3)c1)OCC2` [Compound 38], the IC50 was not above 100 nM.
Regarding `C[C@@H]1CN(c2nc(C(=O)Nc3ccc(NS(=O)(=O)CCO)cc3N3CCC4(CC3)CC4)cc3c2OCC3)CCO1` [Compound 98], the IC50 was not above 100 nM.
With `C[C@@H]1CN(c2cc(C(=O)Nc3ccc(S(=O)(=O)NCCO)cc3N3CCC4(CC3)CC4)cc3c2OCC3)CCO1` [Compound 50], the IC50 is not above 100 nM.
`O=C(Nc1ccc(S(=O)(=O)NCCO)cc1N1CCC2(CC1)CC2)c1cc2ccoc2c(N2CCOCC2)n1` [Compound 252]: the IC50 is not above 100 nM.
Regarding `O=C(Nc1cc(N2CCC(F)(F)CC2)c2scnc2c1)c1ccc(NS(=O)(=O)CCO)cc1N1CCC2(CC1)CC2` [Compound 515], the IC50 was not above 100 nM.
As for `O=C(Nc1cc2c(c(N3CCC(F)(F)CC3)c1)NCC2)c1ccc(NS(=O)(=O)CCO)cc1N1CCC2(CC1)CC2` [Compound 523], the figure is not above 100 nM.
As for `O=C(Nc1ccc(S(=O)(=O)NCCO)cc1N1CCC2(CC1)CC2)c1cc2ccoc2c(N2CC(F)(F)C2)n1` [Compound 244], the IC50 was not above 100 nM.
Regarding `C[C@@H]1CN(c2nc(C(=O)Nc3ccc(NS(=O)(=O)CCO)cc3N3CCC4(CC3)CC4)cc3ccn(C)c23)CCO1` [Compound 482], the IC50 is not above 100 nM.
For `C[C@@H](CO)NS(=O)(=O)c1ccc(NC(=O)c2cc(N3CCC(F)(F)CC3)c3occc3c2)c(N2CCC3(CC2)CC3)c1` [Compound 189], the IC50 is not above 100 nM.
As for `Cn1ccc2cc(NC(=O)c3ccc(NS(=O)(=O)CCO)cc3N3CCC4(CC3)CC4)cc(N3CC(F)(F)C3)c21` [Compound 388], the figure is not above 100 nM; as for `O=C(Nc1cc2c(c(N3CCC4(CC4)C3)c1)OCC2)c1ccc(S(=O)(=O)NCCO)cc1N1CCC2(CC1)CC2` [Compound 22], not above 100 nM.
With `C[C@H]1CN(c2cc(C(=O)Nc3ccc(NS(=O)(=O)CCO)cc3N3CCC4(CC3)CC4)cc3c2N(C)CC3)CCO1` [Compound 291], the IC50 was not above 100 nM.
Take `O=C(Nc1ccc(NS(=O)(=O)CCO)cc1N1CCC2(CC1)CC2)c1cc2ccoc2c(N2CC(F)(F)C2)n1` [Compound 228]: the IC50 was not above 100 nM.
On to `CN1CCc2cc(C(=O)Nc3ccc(NS(=O)(=O)CCO)cc3N3CCC4(CC3)CC4)nc(N3CCC(C)(F)C3)c21` (stereo not shown) [Compound 360], for which the IC50 is not above 100 nM.
On to `CC1(F)CCN(c2nc(NC(=O)c3ccc(S(=O)(=O)NCCO)cc3N3CCC4(CC3)CC4)cc3ccoc23)C1` (stereo not shown) [Compound 216], for which the IC50 is not above 100 nM.
Turning to `O=C(Nc1ccc(S(=O)(=O)NCCO)cc1N1CCC2(CC1)CC2)c1cc(N2CC3CC3C2)c2occc2c1` (stereo not shown) [Compound 186], the IC50 is not above 100 nM.
For the molecule `C[C@H]1CN(c2cc(NC(=O)c3ccc(S(=O)(=O)NCCO)cc3N3CCC4(CC3)CC4)cc3ccoc23)CCO1` [Compound 147], the IC50 is not above 100 nM.
With `C[C@H]1CN(c2cc(C(=O)Nc3ccc(NS(=O)(=O)CCO)cc3N3CCC4(CC3)CC4)cc3ccoc23)CCO1` [Compound 163], the IC50 was not above 100 nM.
As for `Cn1ccc2cc(C(=O)Nc3ccc(NS(=O)(=O)CCO)cc3N3CCC4(CC3)CC4)cc(N3CCOCC3)c21` [Compound 428], the figure is not above 100 nM.
As to `CN1CCc2cc(C(=O)Nc3ccc(S(=O)(=O)NCCO)cc3N3CCC4(CC3)CC4)cc(N3CC(F)(F)C3)c21` [Compound 308], the IC50 is not above 100 nM.
For the molecule `O=C(Nc1cc2ccoc2c(N2CCOCC2)n1)c1ccc(S(=O)(=O)NCCO)cc1N1CCC2(CC1)CC2` [Compound 220], the IC50 is not above 100 nM.
Regarding `C[C@H](CO)NS(=O)(=O)c1ccc(NC(=O)c2cc3c(c(N4CCC(F)(F)CC4)c2)N(C)CC3)c(N2CCC3(CC2)CC3)c1` [Compound 318], the IC50 was not above 100 nM.
For the molecule `Cn1ccc2cc(C(=O)Nc3ccc(S(=O)(=O)NCCO)cc3N3CCC4(CC3)CC4)nc(NC(C)(C)CO)c21` [Compound 507], the IC50 was not above 100 nM.
On to `Cn1ccc2cc(C(=O)Nc3ccc(S(=O)(=O)NCCO)cc3N3CCC4(CC3)CC4)cc(N3CC(F)(F)C3)c21` [Compound 436], for which the IC50 was not above 100 nM.
As for `O=C(Nc1cc2c(c(N3CCOCC3)n1)OCC2)c1ccc(NS(=O)(=O)CCO)cc1N1CCC2(CC1)CC2` [Compound 76], the IC50 was not above 100 nM.
In the case of `O=C(Nc1cc(N2CC(F)(F)C2)c2occc2c1)c1ccc(NS(=O)(=O)CCO)cc1N1CCC2(CC1)CC2` [Compound 132], the IC50 was not above 100 nM.
For the molecule `Cn1ccc2cc(C(=O)Nc3ccc(S(=O)(=O)NCCO)cc3N3CCC4(CC3)CC4)cc(N3CCC4(CC4)C3)c21` [Compound 438], the IC50 was not above 100 nM.
`C[C@@H]1CN(c2cc(C(=O)Nc3ccc(S(=O)(=O)NCCO)cc3N3CCC4(CC3)CC4)cc3c2N(C)CC3)CCO1` [Compound 306]: the IC50 was not above 100 nM.
For the molecule `C[C@@H](CO)NS(=O)(=O)c1ccc(NC(=O)c2cc3c(c(N4CCC(F)(F)CC4)n2)OCC3)c(N2CCC3(CC2)CC3)c1` [Compound 125], the IC50 was not above 100 nM.
`O=C(Nc1ccc(NS(=O)(=O)CCO)cc1N1CCC2(CC1)CC2)c1cc2ccoc2c(N2CCC3(CC3)C2)n1` [Compound 230]: the IC50 is not above 100 nM.
On to `Cn1ccc2cc(NC(=O)c3ccc(NS(=O)(=O)CCO)cc3N3CCC4(CC3)CC4)nc(N3CCC4(CC4)C3)c21` [Compound 454], for which the IC50 is not above 100 nM.
With `CC(C)(CO)Nc1nc(C(=O)Nc2ccc(S(=O)(=O)NCCO)cc2N2CCC3(CC2)CC3)cc2c1OCC2` [Compound 123], the IC50 is not above 100 nM.
Turning to `CC1(F)CCN(c2cc(NC(=O)c3ccc(S(=O)(=O)NCCO)cc3N3CCC4(CC3)CC4)cc3c2OCC3)C1` (stereo not shown) [Compound 24], the IC50 was not above 100 nM.
On to `Cn1ccc2cc(C(=O)Nc3ccc(NS(=O)(=O)CCO)cc3N3CCC4(CC3)CC4)cc(N3CC4CC4C3)c21` (stereo not shown) [Compound 426], for which the IC50 was not above 100 nM.
As for `C[C@@H](CO)NS(=O)(=O)c1ccc(NC(=O)c2cc3ccoc3c(N3CCC(F)(F)CC3)n2)c(N2CCC3(CC2)CC3)c1` [Compound 253], the IC50 is not above 100 nM.
Turning to `C[C@H]1CN(c2nc(C(=O)Nc3ccc(NS(=O)(=O)CCO)cc3N3CCC4(CC3)CC4)cc3ccoc23)CCO1` [Compound 227], the IC50 was not above 100 nM.
With `C[C@H](CO)NS(=O)(=O)c1ccc(C(=O)Nc2cc3c(c(N4CCC(F)(F)CC4)c2)N(C)CC3)c(N2CCC3(CC2)CC3)c1` [Compound 286], the IC50 is not above 100 nM.
For `Cn1ccc2cc(NC(=O)c3ccc(S(=O)(=O)NCCO)cc3N3CCC4(CC3)CC4)nc(N3CCC(C)(F)C3)c21` (stereo not shown) [Compound 472], the IC50 was not above 100 nM.
`C[C@H]1CN(c2nc(C(=O)Nc3ccc(NS(=O)(=O)CCO)cc3N3CCC4(CC3)CC4)cc3ccn(C)c23)CCO1` [Compound 483]: the IC50 was not above 100 nM.
On to `O=C(Nc1cc2c(c(OC3CCC3)c1)OCC2)c1ccc(S(=O)(=O)NCCO)cc1N1CCC2(CC1)CC2` [Compound 23], for which the IC50 is not above 100 nM.
With `C[C@@H](CO)NS(=O)(=O)c1ccc(C(=O)Nc2cc(N3CCC(F)(F)CC3)c3c(ccn3C)c2)c(N2CCC3(CC2)CC3)c1` [Compound 413] the figure was not above 100 nM; with `CC(C)(CO)Nc1cc(C(=O)Nc2ccc(S(=O)(=O)NCCO)cc2N2CCC3(CC2)CC3)cc2ccoc12` [Compound 187], not above 100 nM.
